# Results taken from patent US7208469B2, “Therapeutic method” (Auckland UniServices Limited, priority 1997, dated 2007).
# Positions of bridges follow the written chain, without caps; N, C: chain ends. No end group written: not given here.
# Columns and labels:
# [1] = system: tibiae of normal adult male mice; assay: In vivo study: daily subcutaneous injection in mice, tibial growth plate width and tibial length; settings: male Swiss mice, 300 ug/kg/injection s.c., 5 days/week for 4 weeks; for tibial (epiphyseal) growth plate width: mean±sem, controls 0.081-0.094 mm
# Procedure: Two groups of 20 sexually mature male Swiss mice aged between 40 and 50 days and weighing 25–32 g, were given daily subcutaneous injections (50 ul) in the loose skin at the nape of the neck for 5 days/week over 4 consecutive weeks. The treated group was injected with peptide at a dose of 300 ug/kg/injection and the control group was injected with vehicle (water). Animals were housed in a room maintained at 20° C. on 12-hour light/dark cycles. They were fed diet 86 rodent pellets (New Zealand Stockfeed Ltd) ad libitum throughout the experiment. Each animal's weight was recorded at the beginning and end of the experiment. One day after the last injection, animals were sacrificed by cervical dislocation. They study had the approval of the local institutional review board.
# The tibiae were dissected free of adherent tissue. Tibial lengths were recorded by measuring the distance between the proximal epiphysis and the distal tibio-fibular junction using an electronic micrometer (Digimatic Calipers, Mitutoyo, Japan). Bones were placed in 10% phosphate-buffered formalin for 24 hours and then dehydrated in a graded series of ethanol solutions and embedded, undecalcified, in methylmethacrylate resin. Tibiae were sectioned longitudinally through the frontal plane and calvariae were cut cross-sectionally at the base of the parietal bone. All sections were 4 um think and were cut on a Leitz microtome using a tungsten-carbide knife (Microknife Sharpening, Utah, USA). Sections were mounted on gelatin-coated slides and air-dried. They were stained with Goldner's tri-chrome and examined using an Olympus BX 50 microscope (Olympus Optical Co Ltd, Tokyo, Japan) which was attached to an Osteomeasure Image Analyzer (Osteometrics Inc. Atlanta, Ga.).
# Tibial histomorphometric analyses were made from three adjacent sections one third of the way through the anterior/posterior depth of the proximal tibiae. Epiphyseal growth plate thickness was measured at three sites evenly spaced along its length. All measurements were made by one operator who was blinded to the treatment group of each bone.
# chondrocytes [2] = assay: Chondrocyte monolayer cell cultures: proliferation (cell counts and [3H]-thymidine incorporation); type: cell-based, dog; settings: 24 hours
# Procedure: Fresh cartilage samples were collected from the tibial plateaus and femoral condyles of mature, healthy crossbred dogs (2–4 years; 20–25 kg). The chondrocytes were isolated as previously described (Connective Tissue Research 1988; 18:205–222). Briefly, the chondrocytes were obtained by pronase and collagenase digestion of the cartilage, then the cells were centrifuged, washed and resuspended in media before being cultured in 75 cm^2 tissue culture flasks. The cells were incubated under 5% CO2 and 95% air at 37° C. Confluence was reached by 7–10 days, at which time the cells were subcultured. After trypsinization, the cells are rinsed and resuspended in fresh medium, then seeded at 5×10^4 cells/ml in 24-well plates (0.5 ml cell suspension per well, ie. 1.4×10^4 cells/cm^2). Proliferation studies (cell counts and thymidine incorporation) were performed. Subconfluent population were changed to serum-free medium with 0.1% bovine serum albumin plus the experimental compounds. Cell numbers were analysed at 24 hours after addition of the peptide or vehicle. The cell numbers were determined using a haemocytometer chamber. Results were expressed per well. [^3H]-thymidine incorporation was assessed by pulsing the cells with [^3H]-thymidine (1 uCi/well) two hours before the end of the experimental incubation. The experiment was terminated at 24 hours by washing the cells in media containing cold thymidine followed by the addition of 10% tricholoroacetic acid. The precipitate was washed twice with ethanol:ether (3:1) and the wells desiccated at room temperature. The residue was redissolved in 2 M KOH at 55° C. for 30 mins, neutralised with 1 M HCl, and an aliquot counted for radioactivity. Results were expressed as dpm per well. For both cell counts and thymidine incorporation, each experiment was performed at least 4 different times using experimental groups consisting of at least 6 wells.
# chondrocytes [3] = assay: Chondrocytes 3-dimensional cell cultures in alginate beads: proliferation (cell counts and 3H-thymidine incorporation); type: cell-based, dog
# Procedure: Alginate head cultures were established as described by Guo, et al. Culture and growth characteristics of chondrocytes encapsulated in alginated beads. Connective Tissue Research 19:277–297 (1989). Briefly the cells were suspended in a solution of 1.25% (wt/vol) alginate in HEPES (20 mM HEPES buffer pH neutral) at a density of 2×10^6 cells/ml> The suspension of chondrocytes were slowly extruded through a 22-gauge needle in a dropwise manner into 40 ml of 0.1 M CaCl2 solution. After instantaneous gelation, the beads were allowed to further polymerise in CaCl2 solution (10 mins, room temperature). The beads were washed sequentially, twice in 0.15 M NaCl and twice in Dulbecco's modified Eagle's medium (DME). After the washing procedure, the beads were placed into 24-well culture plates (10 beads/well) and fed with 1 ml 10% fetal calf serum (FCS) SMW with 5μg/ml ascorbic acid. The cultures were maintained at 37° C. in a humidified atmosphere of 5% CO2 in air. The medium was changed every second day. […] Cell numbers were analysed at day 8 by exposing alginate beads to 50 mM ethylenediaminetetraacetic acid (EDTA) for approximately 10 minutes at 37° C. […] Tritiated-thymidine incorporation (^3H-thymidine) was assessed by pulsing the beads with ^3H-thymidine (1μCi/well) 48 hours before the end of experimental incubation. […] Pellets were resuspended and counted for radioactivity.
substance,measurement,setting,value
Adrenomedullin-(27–52) (AHQIYQFTDKDKDNVAPRSKISPQGY; listed as Homo sapiens),tibial (epiphyseal) growth plate width,[1],0.11 mm
"Adrenomedullin (YRQSMNNFQGLRSFGCRFGTCTVQKLAHQIYQFTDKDKDNVAPRSKISPQGY-NH2; disulfide 16-21 (inferred); ends not checked; UniProt P35318 95-146, looked up) [52-amino acid peptide first described by Kitamura et al; synthesized by solid-phase procedures]",cell numbers,"chondrocytes [2]; peptide 10^−9M, control 1.79±0.07, p<0.01",2.27±0.12 ×10^4
Amylin (KCNTATCATQRLANFLVHSSNNFGAILSSTNVGSNTY; listed as Rattus norvegicus) [rat amylin sourced from Bachem California],thymidine incorporation (DNA synthesis),"chondrocytes [3]; day 8, peptide 10^−10M, control 1135±85, p<0.001",2584±229 dpm
same,cell numbers,"chondrocytes [3]; day 8, per well, peptide 10^−10M, control 5.58±0.16, p<0.03",6.07±0.05 ×10^4
same,thymidine incorporation (DNA synthesis),"chondrocytes [2]; per well, amylin concentration not given, control 20725±997",25937±1203 dpm
same,cell numbers,"chondrocytes [2]; per well, mean±sem, amylin concentration not given, control 4.12±0.23, p=0.01",5.11±0.21 ×10^4
same,tibial (epiphyseal) growth plate width,[1],0.108±0.003 mm
same,total length of the tibiae,[1]; control 11.31±0.07,11.67±0.09 mm
Amylin-(1–8) (KCNTATCA-NH2; disulfide 2-7 (inferred); listed as Rattus norvegicus),cell numbers,"chondrocytes [2]; peptide 10–8M, control 3.23±0.11, p=0.02",3.63±0.09 ×10^4
same,thymidine incorporation (DNA synthesis),"chondrocytes [2]; peptide 10–8M, control 26859±423, p=0.02",28932±628 dpm
same,tibial (epiphyseal) growth plate width,[1],0.111 mm
